Among the data in US7932262B2 (Novartis AG, priority 2006, dated 2011) are IC50 and EC50 values, retold here.

One experiment concerns the target T1, PDK1 kinase (Homo sapiens, UniProt O15530).
T1 sequence (O15530 1-556): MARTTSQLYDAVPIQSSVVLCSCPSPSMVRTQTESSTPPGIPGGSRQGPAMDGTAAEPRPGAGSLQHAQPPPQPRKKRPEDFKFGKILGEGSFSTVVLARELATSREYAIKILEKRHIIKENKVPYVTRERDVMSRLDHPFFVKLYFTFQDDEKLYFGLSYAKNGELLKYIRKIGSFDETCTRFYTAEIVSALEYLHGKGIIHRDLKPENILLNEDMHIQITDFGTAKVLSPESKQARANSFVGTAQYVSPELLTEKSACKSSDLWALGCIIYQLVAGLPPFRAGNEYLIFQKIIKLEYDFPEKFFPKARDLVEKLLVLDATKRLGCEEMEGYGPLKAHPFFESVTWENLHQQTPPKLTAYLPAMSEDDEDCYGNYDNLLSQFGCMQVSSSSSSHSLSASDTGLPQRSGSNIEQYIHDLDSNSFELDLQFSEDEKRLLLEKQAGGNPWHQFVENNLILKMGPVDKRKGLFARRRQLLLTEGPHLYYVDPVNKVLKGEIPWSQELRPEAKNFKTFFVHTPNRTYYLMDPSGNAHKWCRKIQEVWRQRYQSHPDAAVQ
As to the kind of experiment: PDK1 Kinase Alpha Screen Assay. It is filed as biochemical. Particulars: PDK1 Kinase Alpha Screen Assay; read-out: PDK1 IC50. In short, it runs like this: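 Kinase inhibition measured as loss of AlphaScreen signal from antibody recognition of phosphorylated biotin-PDK1-4 peptide. Reactions contain 10 uM ATP and 50 nM peptide, run 3-18 hours before EDTA quench and overnight bead development at room temperature.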

Another experiment deals with A2780 cells. The experiment in a line: Cell Proliferation Assay (Cell Titer Glo), A2780. It is filed as cell-based. As to conditions: Homo sapiens; cell proliferation, A2780 cells; read-out: CPEC50 A2780. In a few lines:
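Following a 3-day compound exposure (37° C., 5% CO2) of A2780 or PC3MM cells plated at 1000 per well, viability was measured by Cell Titer Glo luminescence in fresh medium, read 10 min after reagent addition.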
(ATP-based viability assays read luminescence as a measure of living cells.)

Each structure is given as a SMILES string.

By IC50 is commonly meant the concentration that inhibits the measured activity by half. For `Cc1noc(C)c1-c1ccc2cnc(Nc3ccc(S(N)(=O)=O)cc3)nc2c1` [Compound 867, 4-(7-(3,5-dimethylisoxazol-4-yl)quinazolin-2-ylamino)benzenesulfonamide], on PDK1 kinase, the IC50 was less than 5 µM. Further, the EC50 in the experiment on A2780 cells is less than 5 µM.

As for `O=S(=O)(c1ccc(Nc2ncc3ccc(-c4cn[nH]c4)cc3n2)cc1)N1CCOCC1` [Compound 868, N-(4-(morpholinosulfonyl)phenyl)-7-(1H-pyrazol-4-yl)quinazolin-2-amine], at PDK1 kinase, the half-maximal inhibitory concentration (IC50) was less than 5 µM. For the same compound, the EC50 in the experiment on A2780 cells was less than 5 µM.

With `CN1CCC(c2c(O)ccc3cnc(Nc4ccc(S(N)(=O)=O)cc4)nc23)CC1` [Compound 870, 4-(7-hydroxy-8-(1-methylpiperidin-4-yl)quinazolin-2-ylamino)benzenesulfonamide], at PDK1 kinase, the IC50 is less than 5 µM. Also, the EC50 in the experiment on A2780 cells was less than 5 µM.

`CN1CCN(Cc2cccc3cnc(Nc4ccc(S(N)(=O)=O)cc4)nc23)CC1` [Compound 871, 4-(8-((4-methylpiperazin-1-yl)methyl)quinazolin-2-ylamino)benzenesulfonamide]: on PDK1 kinase, the 50% inhibitory concentration (IC50) is less than 5 µM. The EC50 with A2780 cells was less than 5 µM.

`NS(=O)(=O)c1ccc(Nc2ncc3cccc(CN4CCOCC4)c3n2)cc1` [Compound 872, 4-(8-(morpholinomethyl)quinazolin-2-ylamino)benzenesulfonamide]: the IC50 on PDK1 kinase is less than 5 µM. Moreover, the EC50 in the experiment with A2780 cells was less than 5 µM.

In the case of `NS(=O)(=O)c1ccc(Nc2ncc3cccc(Nc4ccc(F)cc4)c3n2)cc1` [Compound 873, 4-(8-(4-fluorophenylamino)quinazolin-2-ylamino)benzenesulfonamide], on PDK1 kinase, the IC50 is less than 5 µM. Also, the EC50 in the experiment on A2780 cells was less than 5 µM.

In the case of `CC(C)N1CCC(Oc2ccc3cnc(Nc4ccc(S(=O)(=O)N5CCOCC5)cc4)nc3c2)CC1` [Compound 874, 7-(1-isopropylpiperidin-4-yloxy)-N-(4-(morpholinosulfonyl)phenyl)quinazolin-2-amine], the IC50 at PDK1 kinase is less than 5 µM. Moreover, the EC50 in the experiment on A2780 cells is less than 5 µM.

With `NS(=O)(=O)c1ccc(Nc2ncc3ccc(-c4ccc5c(c4)CCNC5=O)c(OC4CCNCC4)c3n2)cc1` [Compound 875, 4-(7-(1-oxo-1,2,3,4-tetrahydroisoquinolin-6-yl)-8-(piperidin-4-yloxy)quinazolin-2-ylamino)benzenesulfonamide], the IC50 on PDK1 kinase is less than 5 µM. For the same compound, in the experiment with A2780 cells, the EC50 fell in the range of 5 to 10 µM.

As for `CC(C)Cn1cc(-c2ccc3cnc(Nc4ccc(S(N)(=O)=O)cc4)nc3c2OC2CCNCC2)cn1` [Compound 876, 4-(7-(1-isobutyl-1H-pyrazol-4-yl)-8-(piperidin-4-yloxy)quinazolin-2-ylamino)benzenesulfonamide], the IC50 at PDK1 kinase is less than 5 µM. Also, the EC50 with A2780 cells was less than 5 µM.

In the case of `NS(=O)(=O)c1ccc(Nc2ncc3ccc(-c4cnccn4)c(OC4CCNCC4)c3n2)cc1` [Compound 877, 4-(8-(piperidin-4-yloxy)-7-(pyrazin-2-yl)quinazolin-2-ylamino)benzenesulfonamide], the concentration for half-maximal inhibition (IC50) at PDK1 kinase is less than 5 µM. Besides, the EC50 in the experiment with A2780 cells is less than 5 µM.

Take `NS(=O)(=O)c1ccc(Nc2ncc3ccc(-c4ccc(NCCN5CCCC5)nc4)cc3n2)cc1` [Compound 878, 4-(7-(6-(2-(pyrrolidin-1-yl)ethylamino)pyridin-3-yl)quinazolin-2-ylamino)benzenesulfonamide]: the 50% inhibitory concentration (IC50) at PDK1 kinase is less than 5 µM. The EC50 in the experiment on A2780 cells was less than 5 µM.

With `CN1CCN(c2ccc(-c3ccc4cnc(Nc5ccc(S(N)(=O)=O)cc5)nc4c3)cn2)CC1` [Compound 879, 4-(7-(6-(4-methylpiperazin-1-yl)pyridin-3-yl)quinazolin-2-ylamino)benzenesulfonamide], on PDK1 kinase, the IC50 is less than 5 µM. Also, the EC50 with A2780 cells is less than 5 µM.

Turning to `NS(=O)(=O)c1ccc(Nc2ncc3ccc(-c4ccc(N5CCCC5)nc4)cc3n2)cc1` [Compound 880, 4-(7-(6-(pyrrolidin-1-yl)pyridin-3-yl)quinazolin-2-ylamino)benzenesulfonamide], the IC50 at PDK1 kinase is less than 5 µM. Moreover, the EC50 with A2780 cells was 5 to 10 µM.

On to `NS(=O)(=O)c1ccc(Nc2ncc3ccc(-c4ccc(N5CCOCC5)nc4)cc3n2)cc1` [Compound 881], for which the 50% inhibitory concentration (IC50) on PDK1 kinase was less than 5 µM. Also, in the experiment with A2780 cells, the EC50 is less than 5 µM.

As to `CN1CCN(c2cc(-c3ccc4cnc(Nc5ccc(S(N)(=O)=O)cc5)nc4c3)ccn2)CC1` [Compound 882, 4-(7-(2-(4-methylpiperazin-1-yl)pyridin-4-yl)quinazolin-2-ylamino)benzenesulfonamide], the IC50 on PDK1 kinase was less than 5 µM. In addition, the EC50 with A2780 cells is less than 5 µM.

Consider `CC(C)CCn1cc(-c2ccc3cnc(Nc4ccc(S(N)(=O)=O)cc4)nc3c2)cn1` [Compound 883, 4-(7-(1-isopentyl-1H-pyrazol-4-yl)quinazolin-2-ylamino)benzenesulfonamide], for which the IC50 on PDK1 kinase was less than 5 µM. In addition, the EC50 in the experiment on A2780 cells was less than 5 µM.

In the case of `NC(=O)c1ccc(-c2cc(F)cc3cnc(Nc4ccc(S(N)(=O)=O)cc4)nc23)cc1` [Compound 886, 4-(6-fluoro-2-(4-sulfamoylphenylamino)quinazolin-8-yl)benzamide], the 50% inhibitory concentration (IC50) at PDK1 kinase was less than 5 µM. Further, in the experiment with A2780 cells, the EC50 is 5 to 10 µM.

As to `NS(=O)(=O)c1ccc(Nc2ncc3cccc(-c4ccc5c(c4)CCNC5=O)c3n2)cc1` [Compound 887, 4-(8-(1-oxo-1,2,3,4-tetrahydroisoquinolin-6-yl)quinazolin-2-ylamino)benzenesulfonamide], on PDK1 kinase, the IC50 is less than 5 µM. In addition, the EC50 in the experiment with A2780 cells was in the range of 5 to 10 µM.

On to `NS(=O)(=O)c1ccc(Nc2ncc3cc(F)cc(-c4ccc(N5CCNC(=O)C5)nc4)c3n2)cc1` [Compound 889, 4-(6-fluoro-8-(6-(3-oxopiperazin-1-yl)pyridin-3-yl)quinazolin-2-ylamino)benzenesulfonamide], for which, on PDK1 kinase, the IC50 is less than 5 µM. Also, the EC50 in the experiment on A2780 cells is less than 5 µM.

For `NS(=O)(=O)c1ccc(Nc2ncc3cc(F)cc(-c4ccc(N5CCCC5)nc4)c3n2)cc1` [Compound 890, 4-(6-fluoro-8-(6-(pyrrolidin-1-yl)pyridin-3-yl)quinazolin-2-ylamino)benzenesulfonamide], at PDK1 kinase, the half-maximal inhibitory concentration (IC50) was less than 5 µM. Besides, the EC50 in the experiment on A2780 cells was 5 to 10 µM.

Take `CC(=O)NCCNc1ccc(-c2cc(F)cc3cnc(Nc4ccc(S(N)(=O)=O)cc4)nc23)cn1` [Compound 891, N-(2-(5-(6-fluoro-2-(4-sulfamoylphenylamino)quinazolin-8-yl)pyridin-2-ylamino)ethyl)acetamide]: at PDK1 kinase, the IC50 is less than 5 µM. Further, the EC50 in the experiment on A2780 cells is less than 5 µM.

As to `NS(=O)(=O)c1ccc(Nc2ncc3cccc(Nc4cccnc4)c3n2)cc1` [Compound 895, 4-(8-(pyridin-3-ylamino)quinazolin-2-ylamino)benzenesulfonamide], the IC50 on PDK1 kinase was less than 5 µM. Moreover, the EC50 in the experiment on A2780 cells was 5 to 10 µM.

With `NS(=O)(=O)c1ccc(Nc2ncc3cccc(CN4CCNC(=O)C4)c3n2)cc1` [Compound 896, 4-(8-((3-oxopiperazin-1-yl)methyl)quinazolin-2-ylamino)benzenesulfonamide], the 50% inhibitory concentration (IC50) on PDK1 kinase was less than 5 µM. Moreover, in the experiment with A2780 cells, the EC50 was less than 5 µM.

For `CC(C)NCc1cccc2cnc(Nc3ccc(S(N)(=O)=O)cc3)nc12` [Compound 897, 4-(8-((isopropylamino)methyl)quinazolin-2-ylamino)benzenesulfonamide], the IC50 on PDK1 kinase is less than 5 µM. Moreover, the EC50 in the experiment on A2780 cells was less than 5 µM.

As for `Cn1cc(-c2ccc3cnc(Nc4ccc(S(N)(=O)=O)cc4)nc3c2-c2cnn(C)c2)cn1` [Compound 898, 4-(7,8-bis(1-methyl-1H-pyrazol-4-yl)quinazolin-2-ylamino)benzenesulfonamide], the half-maximal inhibitory concentration (IC50) at PDK1 kinase was less than 5 µM. The EC50 with A2780 cells is less than 5 µM.

As to `NS(=O)(=O)c1ccc(Nc2ncc3ccc(-c4cccnc4)c(-c4cccnc4)c3n2)cc1` [Compound 899, 4-(7,8-di(pyridin-3-yl)quinazolin-2-ylamino)benzenesulfonamide], the IC50 on PDK1 kinase is less than 5 µM. For the same compound, the EC50 in the experiment with A2780 cells was less than 5 µM.

Consider `Nc1ccc(-c2ccc3cnc(Nc4ccc(S(N)(=O)=O)cc4)nc3c2-c2ccc(N)nc2)cn1` [Compound 900, 4-(7,8-bis(6-aminopyridin-3-yl)quinazolin-2-ylamino)benzenesulfonamide], for which the half-inhibitory concentration (IC50) at PDK1 kinase was less than 5 µM. Moreover, in the experiment on A2780 cells, the EC50 fell in the range of 5 to 10 µM.

`NS(=O)(=O)c1ccc(Nc2ncc3cccc(CNCc4ccccc4)c3n2)cc1` [Compound 901, 4-(8-((benzylamino)methyl)quinazolin-2-ylamino)benzenesulfonamide]: at PDK1 kinase, the concentration for half-maximal inhibition (IC50) is less than 5 µM. For the same compound, in the experiment on A2780 cells, the EC50 is less than 5 µM.

In the case of `NS(=O)(=O)c1ccc(Nc2ncc3cccc(CN4CCCC4)c3n2)cc1` [Compound 903, 4-(8-(pyrrolidin-1-ylmethyl)quinazolin-2-ylamino)benzenesulfonamide], the IC50 on PDK1 kinase was less than 5 µM. Also, the EC50 in the experiment with A2780 cells was less than 5 µM.

For `NS(=O)(=O)c1ccc(Nc2ncc3ccc(-c4ccc(F)nc4)c(-c4ccc(F)nc4)c3n2)cc1` [Compound 912, 4-(7,8-bis(6-fluoropyridin-3-yl)quinazolin-2-ylamino)benzenesulfonamide], the IC50 on PDK1 kinase is less than 5 µM. Moreover, the EC50 in the experiment with A2780 cells was less than 5 µM.
